# Where no end group is shown, it is not given here.
# Tests used:
# [1] = test system: C. sojina Cs320 and Cs350 on soybean cv. Blackhawk (FLS); assay: Pre- and post-inoculation in planta antifungal assays with fungal DNA qPCR; assay type: in vivo, Cercospora sojina
# Protocol: For both pre- and post-inoculation in planta antifungal activity assays, 2- to 3-week-old soybean plants cv. Blackhawk (FLS susceptible) grown under a16 h light and 8 h dark cycle were used. For pre-inoculation in planta antifungal activity assay, the second or third trifoliate leaves of soybean plants were first sprayed with 1 ml of NCR13_PFV1 peptide (48 µM) on the abaxial leaf surface followed by spray inoculation with 1 ml of conidial suspension (1×10^5 ml^−1) of azoxystrobin-sensitive Cs320 or -resistant Cs350 isolate. For the post-inoculation in planta antifungal activity assay, the second or third trifoliate leaves of soybean were first spray-inoculated with 1 ml of conidial suspension (1×10^5 ml^−1) followed by spray application of 1 ml of NCR13_PFV1 peptide (48 µM) 2 h later. The mock-treated plants were sprayed with water but no peptide. For both pre- and post-inoculation in planta assays, each treatment consisted of at least four plants and the experiments were performed at least twice. The inoculated plants were kept in a growth chamber under a 16 h light and 8 h dark cycle and 90% relative humidity. The FLS symptoms started to appear 7–10 d post-inoculation and disease scoring was done at 14 d. Diseased leaves were excised from the plant, and both white light and CropReporter (Fv/Fm) images were taken to assess the photosynthetic efficiency of the plant. The leaves were also scored based on a 0–5 scale where: 0=healthy leaves with no leaf spots, 1=1–25% leaf area covered with spots, 2=26–50% leaf area covered with spots, 3=slightly yellow leaves with 51–75% leaf area covered with spots, 4=moderately yellow leaves with 76–95% leaf area covered with spots, and 5=whole leaf is yellow or >96% leaf area covered with spots.
# Furthermore, DNA was extracted from the excised leaves to quantify the fungal DNA content using quantitative PCR (PCR). […] DNA quantification in terms of fold change was calculated using the ΔΔCt method ([Livak and Schmittgen, 2001]). […]
# [2] = Heme-peptide binding assay (colour change); settings: equimolar heme and peptide, 100 µM, 1 h, room temperature
# Protocol: Heme solutions were freshly prepared by dissolving hemin chloride (Sigma Cat No: 3741) in 0.1 M NaOH and used within an hour after preparation. Two heme-sequestering peptides, NCR247 and NCR455 ([Montiel et al., 2017]; [Sankari et al., 2022]), were used as positive controls, and water-only treatment as a negative control. The equimolar concentration of heme and peptide (100 µM) or water were mixed and incubated at room temperature for 1 h. When dissolved in NaOH, heme is light to dark brown in color; however, when it binds to a peptide, the color changes to reddish-brown as described by [Sankari et al. (2022)]. The change in color of heme to reddish-brown indicated the heme binding ability of the peptide.
# [3] = test system: C. sojina Cs350 (fungicide resistant); assay: Peptide-fungicide checkerboard assay; assay type: cell-based, Cercospora sojina; settings: pair azoxystrobin / NCR13_PFV1; Cs350; 4 d; SHAM 60 µg ml–1; microscopy
# Protocol: Synergy between NCR13_PFV1 and the widely used QoI foliar fungicides, azoxystrobin (Sigma-Aldrich, Cat No: 31697), trifloxystrobin (Sigma-Aldrich, Cat No: 46447), and pyraclostrobin (Sigma-Aldrich, Cat No: 33696), were evaluated using checkerboard assays. This assay was performed in a 96-well plate and the preparation of conidial suspension, peptide dilutions, and fungicide dilutions were similar to the in vitro antifungal activity assay described above. The presence of an alternative respiration pathway allows some fungi including C. sojina to germinate even in the presence of a high dose of QoI fungicides in vitro ([Ziogas et al., 1997]; [Zhang et al., 2012]). Therefore, to prevent alternative respiration in C. sojina, salicylhydroxamic acid (SHAM) was added in each reaction at the final concentration of 60 µg ml^–1 ([Zhang et al., 2012]). The conidia, peptide, fungicide, and SHAM were added in a 96-well plate at the v/v ratio of 4:1:1:2 (50 µl:12.5 µl:12.5 µl:25 µl) in the final reaction volume of 100 µl, and the plate was incubated at room temperature for 96 h (4 d). After 96 h, MIC values of the peptide–fungicide combination, peptide alone, and fungicide alone were calculated based on microscopy as well as the resazurin cell viability assay. The fractional inhibitory concentration (FIC) index was calculated using the formula FIC = (MICA+B/MICA) + (MICB+A/MICB), where MICA and MICB are the MIC for peptide (A) alone and fungicide (B) alone, respectively, MICA+B is the MIC for peptide in combination with fungicide (A+B), and MICB+A is the MIC for fungicide in combination with peptide (B+A). The FIC index was interpreted as: synergistic, ≤0.5; additive, >0.5–1.0; indifferent, >1 to <4.0; or antagonistic, ≥4.0.
# [4] = test system: C. sojina Cs350 conidia and germlings; assay: Plasma membrane permeabilization assay (SYTOX Green); assay type: cell-based, Cercospora sojina
# Protocol: Membrane permeabilization of C. sojina Cs350 by NCR13_PFV1 and azoxystrobin was analyzed by visualizing the influx of SYTOX Green (SG) (Thermo Scientific) using time-lapse confocal microscopy. Germlings grown for 6–8 h or conidia of C. sojina were mixed with various concentrations of NCR13_PFV1, azoxystrobin, or both and 0.5 µM SG and were observed under confocal microscopy at an excitation wavelength of 500 nm and an emission wavelength ranging from 510 nm to 600 nm at specific time intervals. A z-stack at each time point was acquired using a ×63 water immersion objective lens (HC PL Apochromat CS2).
sequence,measurement,setting,value
"TKPCQSDKDCKKFACRKPKVPKCINGFCKCVR (disulfide (positions not given here)) [NCR13_PFV1, chickpea nodule-specific cysteine-rich 32 amino acid peptide, disulfide cross-linking variant 1, expressed in Pichia pastoris]","fungal biomass in infected leaves (fungal DNA, qPCR)","[1]; 48 µM spray, Cs320 and Cs350, P-value ≤0.05",significantly reduced biomass
same,"FLS symptoms (disease severity, 0–5 scale)","[1]; 48 µM spray, pre- or post-inoculation (2 h), Cs320 or Cs350, scored at 14 d, Wilcoxon, P-value ≤0.05, n=8, r=2",significantly reduced
same,concentration giving the best control of FLS symptoms,"[1]; preliminary experiments, 12 µM to 48 µM tested",48 µM
same,heme binding (colour change of heme from brown to reddish-brown),[2],no such color change
same,Combination MIC,[3],0.75 µM
same,plasma membrane permeabilization (SYTOX Green uptake),"[4]; Cs350, 0.5 µM SG, confocal microscopy",permeabilization of the plasma membrane
same,time to plasma membrane permeabilization of conidia and germlings,[4]; SYTOX Green uptake,≤ 10 min

# — publication PMC13672995, “NCR13 peptide protects soybean against Cercospora sojina using multi-faceted modes of action and additive interaction with chemical fungicides” (Journal of Experimental Botany, 2025)
